Assay results taken from ChEMBL document CHEMBL1770088, “Orally bioavailable imidazoazepanes as calcitonin gene-related peptide (CGRP) receptor antagonists: discovery of MK-2918” (Bioorg Med Chem Lett, 2011).
≈ marks a conversion by molar mass, not a printed value.

Columns and labels:
[1] = molecular target: T1, Calcitonin gene-related peptide type 1 receptor (Homo sapiens, UniProt O60894+Q16602); experiment: Antagonist activity at CGRP receptor assessed as inhibition of CGRP-stimulated cAMP production by cell based assay in presence of 50% human serum; assay type: functional
[2] = molecular target: T1, Calcitonin gene-related peptide type 1 receptor; experiment: Displacement of [125I]-CGRP from human recombinant CGRP receptor
[3] = molecular target: T1, Calcitonin gene-related peptide type 1 receptor; experiment: Antagonist activity at CGRP receptor assessed as inhibition of CGRP-stimulated cAMP production by cell based assay; assay type: functional
[4] = Oral bioavailability in rhesus monkey at 10 mg/kg, po; assay type: ADME, organism-based, Macaca mulatta; conditions: in vivo
Rattus norvegicus = experiment: Oral bioavailability in rat assessed as N-((6S,9R)-6-(2,3-difluorophenyl)-3-(2-hydroxypropan-2-yl)-6,7,8,9-tetrahydro-5H-imidazo[1,2-a]azepin-9-yl)-2'-oxo-1',2'-dihydrospiro[piperidine-4,4'-pyrido[2,3-d][1,3]oxazine]-1-carboxamide at 10 mg/kg, po or iv normalized to AUC; assay type: ADME, organism-based; conditions: in vivo
[5] = Oral bioavailability in dog at 10 mg/kg, po; assay type: ADME, organism-based, Canis lupus familiaris; conditions: in vivo
Homo sapiens = species on record: Homo sapiens; experiment: Ratio of IC50 for inhibition of [35S]-MK-499 binding to human ERG channel to IC50 for inhibition of cell based CGRP-stimulated cAMP production
Rhesus monkey [6] = experiment: Oral bioavailability in rhesus monkey assessed as N-((6S,9R)-6-(2,3-difluorophenyl)-3-(2-hydroxypropan-2-yl)-6,7,8,9-tetrahydro-5H-imidazo[1,2-a]azepin-9-yl)-2'-oxo-1',2'-dihydrospiro[piperidine-4,4'-pyrido[2,3-d][1,3]oxazine]-1-carboxamide at 10 mg/kg, po or iv normalized to AUC; assay type: ADME, organism-based, Macaca mulatta; conditions: in vivo
[7] = Apparent permeability of compound; assay type: ADME; conditions: not told
[8] = Aqueous solubility of the compound at pH 3; assay type: physicochemical; conditions: buffer
Canis familiaris = experiment: Oral bioavailability in dog assessed as N-((6S,9R)-6-(2,3-difluorophenyl)-3-(2-hydroxypropan-2-yl)-6,7,8,9-tetrahydro-5H-imidazo[1,2-a]azepin-9-yl)-2'-oxo-1',2'-dihydrospiro[piperidine-4,4'-pyrido[2,3-d][1,3]oxazine]-1-carboxamide at 10 mg/kg, po or iv normalized to AUC; assay type: ADME, organism-based, Canis lupus familiaris; conditions: in vivo
[9] = Oral bioavailability in rat at 10 mg/kg, po administered as a suspension in 1% aqueous methylcellulose; assay type: ADME, organism-based; conditions: in vivo
Rhesus monkey [10] = experiment: Inhibition of capsaicin-induced dermal vasodilation in orally dosed rhesus monkey; assay type: functional, Macaca mulatta
[11] = Oral bioavailability in rat at 10 mg/kg, po administered as a solution in 1:1 imwitor:tween; assay type: ADME, organism-based; conditions: in vivo
[12] = Aqueous solubility of the compound at pH 7.4; conditions: buffer

T1 sequence (Q16602 whole entry, one chain of several): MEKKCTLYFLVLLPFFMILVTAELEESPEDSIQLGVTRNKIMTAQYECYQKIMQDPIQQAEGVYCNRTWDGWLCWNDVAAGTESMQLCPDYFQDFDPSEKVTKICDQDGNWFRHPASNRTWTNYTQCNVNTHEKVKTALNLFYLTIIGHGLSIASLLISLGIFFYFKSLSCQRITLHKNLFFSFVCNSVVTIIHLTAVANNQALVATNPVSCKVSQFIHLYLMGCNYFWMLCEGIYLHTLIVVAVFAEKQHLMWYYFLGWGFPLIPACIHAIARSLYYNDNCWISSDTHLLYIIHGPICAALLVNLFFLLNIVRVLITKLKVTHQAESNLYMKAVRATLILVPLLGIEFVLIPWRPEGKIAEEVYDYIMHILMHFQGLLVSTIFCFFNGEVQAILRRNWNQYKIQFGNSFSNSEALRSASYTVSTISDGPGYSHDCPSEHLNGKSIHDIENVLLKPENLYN

SMILES	IC50 [1] [nM]	Ki [2] [nM]	IC50 [3] [nM]	Ratio IC50 (Homo sapiens)	bioavailability [9] [%]	also measured
O=C(N[C@@H]1CC[C@@H](c2cccc(F)c2F)Cn2c(-c3ccccc3)cnc21)N1CCC(n2c(=O)[nH]c3ncccc32)CC1	34	1.1	2.6	–	–	–
COC(C)(C)c1cnc2n1C[C@H](c1cccc(F)c1F)CC[C@H]2NC(=O)N1CCC2(CC1)OC(=O)Nc1ncccc12	0.63	0.05	0.24	32000	16	bioavailability [4]: 5%; F (Rattus norvegicus): 26%; bioavailability [5]: 10%; F (Rhesus monkey [6]): 29%; Papp [7]: 24 ×10⁻⁶ cm/s; solubility [8]: 1100 µg/mL (≈ 1890 µM); F (Canis familiaris): 14%
CC(C)(O)c1cnc2n1C[C@H](c1cccc(F)c1F)CC[C@H]2NC(=O)N1CCC2(CC1)OC(=O)Nc1ncccc12	1.5	0.29	0.86	23000	3	EC90 (Rhesus monkey [10]): 330 nM
COC(C)(C)c1cnc2n1C[C@H](c1cccc(F)c1F)CC[C@H]2NC(=O)N1CCC2(CC1)C(=O)Nc1ncccc12	1.4	0.4	0.82	9700	–	bioavailability [11]: 5%
COC(C)(C)c1cnc2n1C[C@H](c1cccc(F)c1F)CC[C@H]2NC(=O)N1CCC(n2c(=O)[nH]c3ncccc32)CC1	0.61	0.04	0.31	–	–	–
CC1(c2cnc3n2C[C@H](c2cccc(F)c2F)CC[C@H]3NC(=O)N2CCC3(CC2)OC(=O)Nc2ncccc23)CCCO1 (some centres not stated)	0.76	0.036	0.21	17000	8	–
O=C(N[C@@H]1CC[C@@H](c2cccc(F)c2F)Cn2c(CC(F)(F)F)cnc21)N1CCC(n2c(=O)[nH]c3ncccc32)CC1	2.6	0.14	0.37	–	35	Papp [7]: 24 ×10⁻⁶ cm/s
O=C(N[C@@H]1CC[C@@H](c2cccc(F)c2F)Cn2ccnc21)N1CCC(n2c(=O)[nH]c3ncccc32)CC1	19	3.1	6.7	–	–	–
O=C(N[C@@H]1CC[C@@H](c2cccc(F)c2F)Cn2c(CC(F)(F)F)nnc21)N1CCC2(CC1)C(=O)Nc1ncccc12	2.7	0.48	2.3	> 13000	–	bioavailability [11]: 6%
CCC(CC)(OC)c1cnc2n1C[C@H](c1cccc(F)c1F)CC[C@H]2NC(=O)N1CCC2(CC1)OC(=O)Nc1ncccc12	0.42	0.039	0.25	3200	–	–
CNCCc1cnc2n1C[C@H](c1cccc(F)c1F)CC[C@H]2NC(=O)N1CCC(n2c(=O)[nH]c3ncccc32)CC1	15	5.7	12	–	–	–
O=C(N[C@@H]1CC[C@@H](c2cccc(F)c2F)Cn2c(CO)cnc21)N1CCC(n2c(=O)[nH]c3ncccc32)CC1	12	2.5	7.9	–	–	–
O=C(N[C@@H]1CC[C@@H](c2cccc(F)c2F)Cn2c(C3CC3)nnc21)N1CCC(n2c(=O)[nH]c3ncccc32)CC1	2.4	1	1.6	–	2	Papp [7]: 4 ×10⁻⁶ cm/s
O=C1Nc2ncccc2C2(CCN(C(=O)N[C@@H]3CC[C@@H](c4cccc(F)c4F)Cn4c(CC(F)(F)F)nnc43)CC2)O1	1.3	0.19	0.83	> 36000	< 1	–
Cc1cnc2n1C[C@H](c1cccc(F)c1F)CC[C@H]2NC(=O)N1CCC(n2c(=O)[nH]c3ncccc32)CC1	12	2.2	4.1	–	–	–
O=C1Nc2ncccc2C2(CCN(C(=O)N[C@@H]3CC[C@@H](c4cccc(F)c4F)Cn4c(CC(F)(F)F)cnc43)CC2)O1	2	0.07	0.41	–	33	bioavailability [4]: 17%; bioavailability [5]: 28%; EC90 (Rhesus monkey [10]): 1000 nM
O=C(N[C@@H]1CC[C@@H](c2cccc(F)c2F)CN(CC(F)(F)F)C1=O)N1CCC(n2c(=O)[nH]c3ncccc32)CC1 [TELCAGEPANT]	–	–	–	–	–	solubility [12]: 30 µg/mL (≈ 53 µM); Papp [7]: 21 ×10⁻⁶ cm/s
CC(C)(OCC(F)(F)F)c1cnc2n1C[C@H](c1cccc(F)c1F)CC[C@H]2NC(=O)N1CCC2(CC1)OC(=O)Nc1ncccc12	13	0.16	0.65	6100	–	–
Cc1cn2c(n1)[C@H](NC(=O)N1CCC(n3c(=O)[nH]c4ncccc43)CC1)CC[C@@H](c1cccc(F)c1F)C2	28	4	8.7	–	–	–
COCc1cnc2n1C[C@H](c1cccc(F)c1F)CC[C@H]2NC(=O)N1CCC2(CC1)C(=O)Nc1ncccc12	4.3	0.62	1.7	9500	–	bioavailability [11]: 21%
CC(C)c1cnc2n1C[C@H](c1cccc(F)c1F)CC[C@H]2NC(=O)N1CCC(n2c(=O)[nH]c3ncccc32)CC1	3.2	0.69	0.62	–	–	–
O=C(N[C@@H]1CC[C@@H](c2cccc(F)c2F)Cn2cc(CO)nc21)N1CCC(n2c(=O)[nH]c3ncccc32)CC1	26	3.2	12	–	–	–
COCc1cnc2n1C[C@H](c1cccc(F)c1F)CC[C@H]2NC(=O)N1CCC2(CC1)OC(=O)Nc1ncccc12	1.7	0.14	0.61	8900	15	–
CCOC(C)(C)c1cnc2n1C[C@H](c1cccc(F)c1F)CC[C@H]2NC(=O)N1CCC2(CC1)OC(=O)Nc1ncccc12	2.9	0.05	0.32	23000	–	–
COCc1cnc2n1C[C@H](c1cccc(F)c1F)CC[C@H]2NC(=O)N1CCC(n2c(=O)[nH]c3ncccc32)CC1	1.9	0.38	0.63	–	–	–
O=C(N[C@@H]1CC[C@@H](c2cccc(F)c2F)Cn2c(C3(C(F)(F)F)CC3)cnc21)N1CCC2(CC1)C(=O)Nc1ncccc12	8.6	0.63	1.4	880	–	–
O=C(N[C@@H]1CC[C@@H](c2cccc(F)c2F)Cn2c(-c3nccs3)cnc21)N1CCC(n2c(=O)[nH]c3ncccc32)CC1	64	1.1	3.6	–	–	–
CN(C)C(=O)c1cnc2n1C[C@H](c1cccc(F)c1F)CC[C@H]2NC(=O)N1CCC(n2c(=O)[nH]c3ncccc32)CC1	7.4	2.8	4.1	–	–	–
O=C(N[C@@H]1CC[C@@H](c2cccc(F)c2F)Cn2cc(CC(F)(F)F)nc21)N1CCC(n2c(=O)[nH]c3ncccc32)CC1	33	3.9	7.2	–	–	–
O=C(N[C@@H]1CC[C@@H](c2cccc(F)c2F)Cn2c(CC(F)(F)F)cnc21)N1CCC2(CC1)C(=O)Nc1ncccc12	4	0.61	0.94	9300	47	–
